Source: ChEMBL document CHEMBL1138946, “Toward stable N4-modified neurotensins for NTS1-receptor-targeted tumor imaging with 99mTc” (J Med Chem, 2006)
Starred links: 1 amine or outer side, 2 acyl side, 3 side chain; linkers in the order of their positions; H or OH if unused. Non-standard residues stand in square brackets, D forms with d. Residues, ends and D or L forms follow the SMILES beside them. Groups on a side chain read outwards from the residue. *: point of attachment. X1 = NC(N)=NCCCC(CN([C@@H](CCCN=C(N)N)C(=O)[*:2])[*:1])N[*:3]; X3 = NCCCCC(CN([C@@H](CCCN=C(N)N)C(=O)[*:2])[*:1])N[*:3]; Tle = CC(C)(C)[C@H](N)C(=O)O; X2 = NCCNCC(CNCCN)C(=O)*

How the values were obtained:
[1] = molecular target: T1, Neurotensin receptor type 1 (Homo sapiens, UniProt P30989); experiment: Displacement of [125I]Tyr3-NT from human NTS1R expressed in HT29 cells; format: cell-based, HT-29
[2] = molecular target: T1, Neurotensin receptor type 1; experiment: Displacement of [125I]Tyr3-NT from human NTS1R expressed in WiDr cells; format: cell-based
[3] = molecular target: T1, Neurotensin receptor type 1; experiment: Displacement of [125I]Tyr3-NT from NTS1R in human exocrine ductal pancreatic carcinoma

T1 sequence (P30989 whole entry): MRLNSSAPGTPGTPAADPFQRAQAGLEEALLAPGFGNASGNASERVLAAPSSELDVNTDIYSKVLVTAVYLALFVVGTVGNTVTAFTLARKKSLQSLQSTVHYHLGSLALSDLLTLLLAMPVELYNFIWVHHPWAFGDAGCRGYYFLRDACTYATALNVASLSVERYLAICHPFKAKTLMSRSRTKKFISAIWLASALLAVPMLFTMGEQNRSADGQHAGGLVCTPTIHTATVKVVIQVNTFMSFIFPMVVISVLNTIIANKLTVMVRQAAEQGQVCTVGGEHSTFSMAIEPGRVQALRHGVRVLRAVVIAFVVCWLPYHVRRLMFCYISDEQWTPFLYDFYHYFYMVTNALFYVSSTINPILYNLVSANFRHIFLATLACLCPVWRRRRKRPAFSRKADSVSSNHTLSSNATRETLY

IC50 [1] | IC50 [2] | IC50 [3] | SMILES
410 pM | 180 pM | – | CC[C@H](C)[C@H](NC(=O)[C@H](Cc1ccc(O)cc1)NC(=O)[C@@H]1CCCN1C(=O)[C@H](CCCN=C(N)N)NCC(CCCCN)NC(=O)CNC(=O)C(CNCCN)CNCCN)C(=O)N[C@@H](CC(C)C)C(=O)O (stereo partly drawn) [DEMOTENSIN 2] (H-[X3]([Gly-X2])PYIL-OH)
1500 pM | 660 pM | – | CC(C)C[C@H](NC(=O)[C@@H](NC(=O)[C@H](Cc1ccc(O)cc1)NC(=O)[C@@H]1CCCN1C(=O)[C@H](CCCN=C(N)N)NCC(CCCCN)NC(=O)CNC(=O)C(CNCCN)CNCCN)C(C)(C)C)C(=O)O (stereo partly drawn) [DEMOTENSIN 3] (H-[X3]([Gly-X2])PY[Tle]L-OH)
850 pM | 510 pM | 2900 pM | CC(C)C[C@H](NC(=O)[C@@H](NC(=O)[C@H](Cc1ccc(O)cc1)NC(=O)[C@@H]1CCCN1C(=O)[C@H](CCCN=C(N)N)NCC(CCCN=C(N)N)NC(=O)CNC(=O)C(CNCCN)CNCCN)C(C)(C)C)C(=O)O (stereo partly drawn) [DEMOTENSIN 4] (H-[X1]([Gly-X2])PY[Tle]L-OH)
320 pM | – | – | CC[C@H](C)[C@H](NC(=O)[C@H](Cc1ccc(O)cc1)NC(=O)[C@@H]1CCCN1C(=O)[C@H](CCCN=C(N)N)NC(=O)[C@H](CCCN=C(N)N)NC(=O)CNC(=O)C(CNCCN)CNCCN)C(=O)N[C@@H](CC(C)C)C(=O)O [Demotensin 1] (X2-GRRPYIL-OH)
